Results from ChEMBL document CHEMBL1201862, “PubChem BioAssay data set” (2004).
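Exposure lasted 48 hours, with cells grown in 96-well plates and compounds tested at five concentrations. Abbreviation: GI50, concentration required for 50% inhibition of growth.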 Activity calls are given as the source filed them. No stated cut-off is given here; in the data, active = GI50 up to about 1.1 µM and inactive = higher.

Assays:
Experiment in all cases: DTP human tumour cell line panel, 48 h
SN12C = test system: SN12C
OVCAR-5 = test system: OVCAR-5
OVCAR-3 = test system: OVCAR-3
ACHN = test system: ACHN
DMS-114 = test system: DMS-114
HCC 2998 = test system: HCC 2998
SNB-75 = test system: SNB-75
EKVX = test system: EKVX
CCRF-CEM = test system: CCRF-CEM
OVCAR-4 = test system: OVCAR-4
UACC-62 = test system: UACC-62
Malme-3M = test system: Malme-3M
SF-295 = test system: SF-295
HCT-116 = test system: HCT-116
A498 = test system: A498
MDA-N = test system: MDA-N
DU-145 = test system: DU-145
T47D = test system: T47D
PC-3 = test system: PC-3
SR = test system: SR

With CC1(C=O)C(=O)CCC2(C)C3CC(=O)OC3CCC12 (configuration not stated) the GI50 (SN12C) was > 100 µM (inactive), the GI50 (OVCAR-5) was > 100 µM (inactive) and the GI50 (OVCAR-3) was > 100 µM (inactive). For the same compound, the GI50 (ACHN) was > 100 µM (inactive), the GI50 (DMS-114) was > 100 µM (inactive) and the GI50 (HCC 2998) was > 100 µM (inactive). For the same compound, the GI50 (SNB-75) was > 100 µM (inactive), the GI50 (EKVX) was > 100 µM (inactive) and the GI50 (CCRF-CEM) was > 100 µM (inactive). The GI50 (OVCAR-4) was > 100 µM (inactive), the GI50 (UACC-62) was > 100 µM (inactive) and the GI50 (Malme-3M) was > 100 µM (inactive). The GI50 (SF-295) was > 100 µM (inactive).
CN(/N=C/c1cccc2cccnc12)c1c([N+](=O)[O-])cc([N+](=O)[O-])cc1[N+](=O)[O-] was tested, and the GI50 (HCT-116) was > 100 µM (inactive), the GI50 (SN12C) was > 100 µM (inactive) and the GI50 (OVCAR-5) was > 100 µM (inactive). The GI50 (OVCAR-3) was > 100 µM (inactive), the GI50 (A498) was 25.5 µM (inactive) and the GI50 (ACHN) was > 100 µM (inactive). For the same compound, the GI50 (DMS-114) was 6.52 µM (inactive), the GI50 (HCC 2998) was > 100 µM (inactive) and the GI50 (SNB-75) was > 100 µM (inactive). For the same compound, the GI50 (EKVX) was > 100 µM (inactive), the GI50 (OVCAR-4) was > 100 µM (inactive) and the GI50 (UACC-62) was > 100 µM (inactive). The GI50 (Malme-3M) was > 100 µM (inactive) and the GI50 (SF-295) was > 100 µM (inactive).
Cc1nc(Cl)c(C)c(Cl)n1 was tested, and the GI50 (HCT-116) was > 100 µM (inactive), the GI50 (SN12C) was > 100 µM (inactive) and the GI50 (OVCAR-5) was > 100 µM (inactive). For the same compound, the GI50 (MDA-N) was 18.8 µM (inactive), the GI50 (OVCAR-3) was > 100 µM (inactive) and the GI50 (A498) was > 100 µM (inactive). For the same compound, the GI50 (ACHN) was > 100 µM (inactive), the GI50 (HCC 2998) was 99.1 µM (inactive) and the GI50 (SNB-75) was > 100 µM (inactive). The GI50 (DU-145) was > 100 µM (inactive), the GI50 (EKVX) was > 27 µM (inactive) and the GI50 (CCRF-CEM) was 18.7 µM (inactive). For the same compound, the GI50 (OVCAR-4) was 52.7 µM (inactive), the GI50 (UACC-62) was > 80.4 µM (inactive) and the GI50 (Malme-3M) was > 100 µM (inactive). The GI50 (T47D) was > 100 µM (inactive), the GI50 (PC-3) was > 93.3 µM (inactive) and the GI50 (SF-295) was > 100 µM (inactive). For the same compound, the GI50 (SR) was 0.254 µM (active).
For O=C1/C(=C\c2cccc(Oc3ccccc3)c2)S(=O)(=O)C(c2ccccc2)N1c1ccccc1Cl (configuration not stated), the GI50 (HCT-116) was 15.4 µM (inactive), the GI50 (SN12C) was 23 µM (inactive) and the GI50 (OVCAR-5) was 33.7 µM (inactive). The GI50 (MDA-N) was 21.2 µM (inactive), the GI50 (OVCAR-3) was 20.9 µM (inactive) and the GI50 (A498) was 45.6 µM (inactive). For the same compound, the GI50 (ACHN) was 27.8 µM (inactive), the GI50 (HCC 2998) was 49.3 µM (inactive) and the GI50 (SNB-75) was 20 µM (inactive). The GI50 (DU-145) was 36.1 µM (inactive), the GI50 (EKVX) was 22.3 µM (inactive) and the GI50 (CCRF-CEM) was 19.1 µM (inactive). The GI50 (OVCAR-4) was 15.4 µM (inactive), the GI50 (UACC-62) was 25.2 µM (inactive) and the GI50 (Malme-3M) was 32.6 µM (inactive). For the same compound, the GI50 (T47D) was 16.3 µM (inactive), the GI50 (PC-3) was 29 µM (inactive) and the GI50 (SF-295) was 30.8 µM (inactive). For the same compound, the GI50 (SR) was 17.9 µM (inactive).
For O=C1OC(c2ccc([N+](=O)[O-])cc2)=N/C1=C\c1ccc(O)cc1, the GI50 (HCT-116) was > 100 µM (inactive), the GI50 (SN12C) was > 100 µM (inactive) and the GI50 (OVCAR-5) was > 100 µM (inactive). The GI50 (MDA-N) was > 100 µM (inactive), the GI50 (OVCAR-3) was > 100 µM (inactive) and the GI50 (A498) was > 100 µM (inactive). The GI50 (ACHN) was > 100 µM (inactive), the GI50 (HCC 2998) was > 100 µM (inactive) and the GI50 (SNB-75) was > 100 µM (inactive). For the same compound, the GI50 (DU-145) was > 100 µM (inactive), the GI50 (EKVX) was > 100 µM (inactive) and the GI50 (CCRF-CEM) was > 100 µM (inactive). The GI50 (OVCAR-4) was > 100 µM (inactive), the GI50 (UACC-62) was > 100 µM (inactive) and the GI50 (Malme-3M) was > 100 µM (inactive). For the same compound, the GI50 (T47D) was > 100 µM (inactive), the GI50 (PC-3) was > 100 µM (inactive) and the GI50 (SF-295) was > 100 µM (inactive). The GI50 (SR) was > 100 µM (inactive).
Cc1cc(N(CCOS(C)(=O)=O)CCOS(C)(=O)=O)ccc1/C=N/c1ccc(-c2csc(-c3ccc(Br)cc3)n2)cc1 was tested, and the GI50 (HCT-116) was 27.5 µM (inactive), the GI50 (SN12C) was 10.7 µM (inactive) and the GI50 (OVCAR-5) was 17.3 µM (inactive). For the same compound, the GI50 (MDA-N) was 14.7 µM (inactive), the GI50 (OVCAR-3) was 10.3 µM (inactive) and the GI50 (A498) was 2.11 µM (inactive). For the same compound, the GI50 (ACHN) was 0.518 µM (active), the GI50 (HCC 2998) was 6.58 µM (inactive) and the GI50 (SNB-75) was 3.99 µM (inactive). The GI50 (DU-145) was 1.91 µM (inactive), the GI50 (EKVX) was 6.24 µM (inactive) and the GI50 (CCRF-CEM) was 1.12 µM (inactive). For the same compound, the GI50 (OVCAR-4) was 26.5 µM (inactive), the GI50 (UACC-62) was 3.66 µM (inactive) and the GI50 (Malme-3M) was 21.9 µM (inactive). For the same compound, the GI50 (T47D) was 10.9 µM (inactive), the GI50 (PC-3) was 19.5 µM (inactive) and the GI50 (SF-295) was 2.95 µM (inactive). For the same compound, the GI50 (SR) was 1.7 µM (inactive).
With COc1cc(OC)c(/C=C\c2cc(/C=C/c3c(OC)cc(OC)cc3OC)c3ccccc3[n+]2C)c(OC)c1 the GI50 (HCT-116) was 2.47 µM (inactive), the GI50 (SN12C) was 2.18 µM (inactive) and the GI50 (OVCAR-5) was 13.2 µM (inactive). The GI50 (MDA-N) was 2.65 µM (inactive), the GI50 (OVCAR-3) was 2.33 µM (inactive) and the GI50 (A498) was 4.59 µM (inactive). For the same compound, the GI50 (ACHN) was 4.59 µM (inactive), the GI50 (HCC 2998) was 3.48 µM (inactive) and the GI50 (SNB-75) was 2.77 µM (inactive). For the same compound, the GI50 (DU-145) was 5.94 µM (inactive), the GI50 (EKVX) was 2.99 µM (inactive) and the GI50 (CCRF-CEM) was 1.38 µM (inactive). The GI50 (OVCAR-4) was 8.39 µM (inactive), the GI50 (UACC-62) was 2.82 µM (inactive) and the GI50 (Malme-3M) was 1.96 µM (inactive). For the same compound, the GI50 (T47D) was 2.37 µM (inactive), the GI50 (PC-3) was 2.6 µM (inactive) and the GI50 (SF-295) was 2.31 µM (inactive). The GI50 (SR) was 2.24 µM (inactive).
